Laboratory results from publication PMC12771125, “Compounds Reducing Human Sperm Motility as Potential Nonhormonal Contraceptives Identified Using a High-Throughput Phenotypic Screening Platform” (ACS Omega, 2025).
Converted amounts (≈) assume the structure as drawn. Read-outs that look alike come from different tables or passages of the source.

Tests used:
[1] = test system: human sperm; test: Reduction of sperm motility (RSM) high-throughput phenotypic assay; type: cell-based; settings: for EC50: Homo sapiens, reduction of progressive sperm motility relative to control
Procedure: Using our previously established phenotypic human sperm motility screening platform, we screened a large subset (62,621 compounds) of one of our in-house diversity libraries (National Phenotypic Screening Centre (NPSC) Diversity Set) (Figure A,B). Briefly, human sperm are collected, isolated from semen, distributed into 384-well plates with test compounds, time-lapse images of sperm movement are recorded using a high-content imager, and progressive motility parameters are calculated using custom data analysis software. Sperm motility is complicated, and the mechanisms underpinning its regulation are not fully understood. Progressive motility, which is a measurement of the movement of forward progression of sperm, is most closely linked to sperm quality, and the percentage of progressively motile sperm compared to control is therefore the parameter utilized during the work described in this paper. […]
We used an HTS screening platform to assess the motility of live human spermatozoa. The platform and its development are described in detail in Gruber et al. , and summarized below in brief. The platform was used to screen compound libraries specifically focusing on reduction in motility. Interesting compounds were examined in further detail as possible starting points for a medicinal chemistry program. The experimental design is illustrated in Figure .
Donors were local to the Dundee area, over the age of 18, and had no known fertility problems and normal sperm concentration, motility and semen characteristics according to WHO 2021 criteria. Special category personal data for donors, such as ethnic origin, was not recorded in accordance with ethical approval and UK GDPR. Samples were obtained by masturbation, after sexual abstinence of 2–5 days, and delivered to the research laboratory within one h of production. Samples were allowed to liquefy at 37 °C for 15–30 min prior to preparation by discontinuous density gradient centrifugation (DGC). […] A minimum of 3 prepared donor samples were routinely pooled to reduce donor-to-donor variability for primary screening assays. Pooled samples were incubated for 3 h at 37 °C under noncapacitating conditions.
In brief, screening batches of cells were transferred to a robotic platform (HighRes Biosolutions Inc.) and maintained during the screen at 37 °C at 5% CO2. Assay-ready 384-well plates containing compounds were prepared prior to the screen and filled with approximately 10,000 spermatozoa (20 μL) per well using a liquid handling system (MultiDrop Combi; ThermoFisher). These plates were incubated for 10 min prior to imaging. The HTS system utilized a Yokogawa CV7000 Cell Voyager high-throughput microscope to record time-lapse images from 2 positions in each well. An adaptation of a tracking algorithm, Trackpy v0.4.1 was utilized to track individual spermatozoa within each well and obtain kinematic parameters. Within the compound-test plates, DMSO was used as the vehicle control.
All steps were performed as previously described. , In summary, data from every compound well were normalized to those from in-plate DMSO controls (wells containing the same amount of DMSO as compound wells). Two positions were recorded in every well, and the average of those positions was used for calculating % of control (median value/DMSO median) × 100. Each plate contained 16 DMSO control wells. Median curvilinear velocity (VCL) was used as the primary readout for the NPSC Diversity Set screened at 6 μM, and percentage progressive motility (PM) was used for all other libraries screened. Hits from the primary screening were chosen based on the % change compared to the control. In these experiments, an RSM of ≥20% compared to negative controls (DMSO) was chosen as a cutoff for potential progression.
In a screening program of this scale, a significant number of compounds are likely to have a negative effect on sperm motility, but a number will show general toxicity. […]

[2] = test system: HepG2 cells; test: HepG2 cytotoxicity assay (resazurin, 72 h); type: cell-based, human; settings: Homo sapiens, HepG2, 72 h; read-out: HepG2 pEC50 (converted)
Source text: Our overarching aims for investigating our chemical series and deciding which ones had the potential for further progression were to achieve adequate potency in our motility assay, suitable solubility, and minimal cytotoxicity in HepG2 cells. This third point was often the most challenging, as multiple series had cytotoxicity in HepG2 cells. This observation is perhaps not surprising; many potential targets in sperm cells can also be found in somatic cells. Our cytotoxicity assay is run with an incubation time of 72 h, to give time for gross cytotoxic effects to become apparent.
Compound dilution curves were plated directly using a Labcyte Echo 550 acoustic dispenser (125 nL) in 384-well white clear-bottom plates (Greiner). HepG2 cells (ATCCHepG2 HB-8065) were cultured in minimum essential medium (supplemented with glutamax) with 10% FCS and plated (25 μL) using a WellMate dispenser ([…]) and incubated for 72 h. Doxorubicin was used as a positive control drug. Resazurin was then added to each well at a final concentration of 45 μM, and fluorescence was measured using a PHERAstar LS (BMG Labtech) after 4 h of further incubation (excitation of 528 nm and emission of 590 nm). Raw data were normalized to controls and expressed as % growth.
Figure S2: Concentration-response curves from high throughput HepG2 viability assay. Each compound was tested in duplicate and the curves of each replicate are shown. The reported values in the tables are an average of the 2 pEC50 values obtained. […]
determine 0% effect, positive control used to determine 100% effect).
Hit compounds 1a, 6b and 7a were repurchased from commercial suppliers including enamine and […]

[3] = Aqueous solubility; type: physicochemical
[4] = 10 min, 10 min incubation, reported <X (neg. log of top concentration) if largest reduction <70%, read-out: RSM pEC50 10 mins (converted)
[5] = 3 h incubation, reported <X if largest reduction <70%, read-out: RSM pEC50 3 hrs (converted)
[6] = 6 h incubation, reported <X if largest reduction <70%, read-out: RSM pEC50 6 hrs (converted)

In the case of `O=C(Nc1ccc([N+](=O)[O-])cc1Cl)c1cc(Cl)ccc1O` [Compound 1a, Niclosamide, reference compound], the “difference between pEC50 in the sperm motility assay and pEC50 in the HepG2 cytotoxicity assay” value [1] is reported as 0.5 log units, the EC50 [1, 4] is reported as 1 µM and the EC50 [2] is reported as 3.16 µM. The solubility [3] was 4.5 µM (≈ 1.47 µg/mL).

Work on `NCCN(C(=O)c1ccc(Cl)cc1Cl)c1ccc(OCc2ccc(Cl)cc2)cc1` [Compound 1b, N-(2-Aminoethyl)-2,4-dichloro-N-(4-((4-chlorobenzyl)oxy)phenyl)benzamide] yielded an EC50 [1, 4] of 12.6 µM, an EC50 [1, 5] of 20 µM and an EC50 [1, 6] of 10 µM. The EC50 [2] was 5.01 µM and the solubility [3] was 53 µM (≈ 23.8 µg/mL).

`Cc1cc(NC(=O)c2cc(Cl)ccc2O)ccc1C#N` [Compound 1c] showed an EC50 [1, 4] of 3.98 µM, an EC50 [2] of 25.1 µM and a solubility [3] of 60 µM (≈ 17.2 µg/mL).

In the case of `N#Cc1ccc(NC(=O)c2cc(Cl)ccc2O)cc1F` [Compound 1d], the EC50 [1, 4] is reported as 2.51 µM, the EC50 [2] is reported as 6.31 µM and the solubility [3] is reported as 35 µM (≈ 10.2 µg/mL).

In the case of `N#Cc1ccc(NC(=O)c2cc(Cl)ccc2O)cc1Cl` [Compound 1e], the EC50 [1, 4] is reported as 2.51 µM, the EC50 [2] is reported as 5.01 µM and the solubility [3] is reported as 2.3 µM (≈ 0.706 µg/mL).

With `O=C(Nc1cccc(Cl)c1)c1cc(Cl)ccc1O` [Compound 1f] the EC50 [1, 4] was 5.01 µM, the EC50 [2] was 6.31 µM and the solubility [3] was 4.1 µM (≈ 1.16 µg/mL).

`N#Cc1ccc(NC(=O)c2cc(Cl)ccc2O)cc1` [Compound 1g] showed an EC50 [1, 4] of 5.01 µM, an EC50 [2] of 2.51 µM and a solubility [3] of 11 µM (≈ 3 µg/mL).

`N#Cc1ccc(NC(=O)c2cc(Cl)ccc2O)cn1` [Compound 1h] gave an EC50 [1, 4] greater than 20 µM, an EC50 [2] of 20 µM and a solubility [3] of 100 µM (≈ 27.4 µg/mL).

Work on `COc1ccc(Cl)cc1C(=O)Nc1ccc(C#N)c(Cl)c1` [Compound 1j] yielded an EC50 [1, 4] greater than 20 µM, an EC50 [2] greater than 100 µM and a solubility [3] of 0.19 µM (≈ 0.061 µg/mL).

For `O=C(Nc1ccc(OCc2ccccc2)cc1)c1ccccc1Cl` [Compound 1k], the EC50 [1, 4] was greater than 20 µM, the EC50 [2] was greater than 100 µM and the solubility [3] was 0.64 µM (≈ 0.216 µg/mL).

`NCCN(C(=O)c1ccccc1Cl)c1ccc(Cl)cc1` [Compound 1l] gave an EC50 [1, 4] greater than 31.6 µM, an EC50 [1, 5] greater than 31.6 µM and an EC50 [1, 6] greater than 31.6 µM. For the same compound, the EC50 [2] was 79.4 µM and the solubility [3] was 240 µM (≈ 74.2 µg/mL).

`NCCN(C(=O)c1ccc(F)cc1F)c1ccc(Cl)cc1` [Compound 1n] showed an EC50 [1, 4] greater than 31.6 µM, an EC50 [1, 5] greater than 31.6 µM and an EC50 [1, 6] greater than 31.6 µM. For the same compound, the EC50 [2] was greater than 100 µM and the solubility [3] was 73 µM (≈ 22.7 µg/mL).

Compound `COc1cc(N2CCOCC2)ccc1Nc1ncc(Cl)c(Nc2ccccc2NS(C)(=O)=O)n1` [Compound 2a, N-(2-((5-Chloro-2-((2-methoxy-4-morpholinophenyl)amino)pyrimidin-4-yl)amino)phenyl)methanesulfonamide, reference compound] has an EC50 [1, 4] of 3.98 µM, an EC50 [1, 5] of 2.51 µM and an EC50 [1, 6] of 2 µM. The EC50 [2] was 3.98 µM and the solubility [3] was 30 µM (≈ 15.2 µg/mL).

`CNC(=O)c1ccccc1Nc1nc(Nc2ccc(N3CCOCC3)cc2OC)ncc1Cl` [Compound 2b] showed an EC50 [1, 4] of 2.51 µM, an EC50 [2] of 2 µM and a solubility [3] of 2.2 µM (≈ 1.03 µg/mL).

Work on `CS(=O)(=O)Nc1cc(F)ccc1Nc1nc(Nc2ccc(C(=O)N3CCOCC3)cc2)ncc1Cl` [Compound 2c] yielded an EC50 [1, 4] of 5.01 µM, an EC50 [1, 5] of 3.16 µM and an EC50 [1, 6] of 3.98 µM. It also gave an EC50 [2] of 7.94 µM and a solubility [3] of 2.3 µM (≈ 1.2 µg/mL).
